Values of other authors, collected in paper PMC2990605 (British Journal of Cancer, 2010).

Experiments:
[1] = test system: human promyelocytic leukaemia cell line HL-60; parameters: method as in Krige et al, 2008; settings: ref Krige et al, 2008; cited from earlier work
[2] = cited from earlier work

Q: With `CC(C)C[C@@H](C(=O)N[C@H](C(=O)OC1CCCC1)c1ccccc1)[C@H](O)C(=O)NO` [tosedostat] as the compound, how does the “gene expression analysis, transcriptional response” value [1] read?
A: transcriptional response to the drug indicative of amino acid depletion

Q: What about the “phosphorylation of mTOR substrates” value [1] of the same compound?
A: inhibited

Q: What about the protein synthesis [1] of the same compound?
A: reduced

Q: What about the effect on platelets ([2]; single agent dose escalation studies, ref Ossenkoppele et al, 2009, Reid et al) of the same compound?
A: platelet suppressive effect

Q: What about the “most commonly reported AEs” value ([2]; single agent oral daily dosing, ref Reid et al, 2009) of the same compound?
A: fatigue, thrombocytopenia, peripheral oedema and diarrhoea

Q: What about the “Dose-limiting toxicities, patients” value ([2]; single agent tosedostat 320 mg, ref Reid et al, 2009) of the same compound?
A: two of four patients

Q: What about the “MTD with single agent tosedostat” value ([2]; solid tumour patients treated for at least 28 days, oral daily, ref Reid et al, 2009) of the same compound?
A: 240 mg
